The assay has as its target T1, human IDO1 (Homo sapiens, UniProt P14902).
T1 construct: expressed in transfected cells
Description: IDO inhibition assay in HEK293 cells stably expressing human IDO1 (kynurenine, Ehrlich reagent, absorbance 490 nm). To be noted: 20 hours incubation, read-out: IDO1 HEK Human IC50. The class given is cell-based. How it is done:
HEK293 cells were transfected with a pCDNA-based mammalian expression vector harboring human IDO1 cDNA (NM 002164.2) by electroporation. They were cultured in medium (DMEM with 10% FBS) containing 1 mg/ml G418 for two weeks. Clones of HEK293 cells that stably expressed human IDO1 protein were selected and expanded for IDO inhibition assay. The human IDO1/HEK293 cells were seeded at 10,000 cells per 50 μL per well with RPMI/phenol red free media contains 10% FBS in a 384-well black wall clear bottom tissue culture plate (Matrix Technologies LLC) 100 nL of certain concentration of compound was then added to each well using ECHO liquid handling systems. The cells were incubated for 20 hours in 37° C. incubator with 5% CO2. The compound treatments were stopped by adding trichloroacetic acid (Sigma-Aldrich) to a final concentration at 0.2%. The cell plate was further incubated at 50° C. for 30 minute. The equal volume supernatant ([…]) and 0.2% (w/v) Ehrlich reagent (4-dimethylaminobenzaldehyde, Sigma-Aldrich) in glacial acetic acid were mixed in a new clear bottom 384-well plate. This plate was then incubated at room temperature for 30 minute. The absorbance at 490 nm was measured on Envision plate reader. Compound IC50 values were calculated using the counts of 500 nM of a reference standard treatment as one hundred percent inhibition, and counts of no compound but DMSO treatment as zero percent inhibition.

T1 sequence (P14902 whole entry): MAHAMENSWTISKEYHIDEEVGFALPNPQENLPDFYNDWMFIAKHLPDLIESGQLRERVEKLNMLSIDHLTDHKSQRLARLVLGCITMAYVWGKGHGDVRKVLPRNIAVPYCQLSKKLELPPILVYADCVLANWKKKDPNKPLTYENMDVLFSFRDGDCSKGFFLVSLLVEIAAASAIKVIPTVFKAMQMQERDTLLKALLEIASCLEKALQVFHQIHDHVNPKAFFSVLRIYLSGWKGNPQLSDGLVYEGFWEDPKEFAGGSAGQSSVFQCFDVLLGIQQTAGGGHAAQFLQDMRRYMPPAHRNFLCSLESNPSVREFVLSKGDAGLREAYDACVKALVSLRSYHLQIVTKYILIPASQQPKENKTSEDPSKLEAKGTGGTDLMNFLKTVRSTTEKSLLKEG

With `Cc1ccc(-c2nnc([C@H](C)[C@H]3CC[C@@H](c4ccnc5ccc(F)cc54)CC3)o2)cc1F` [Example 16, 2-(3-fluoro-4-methylphenyl)-5-((R)-1-((1s,4S)-4-(6-fluoroquinolin-4-yl)cyclohexyl)ethyl)-1,3,4-oxadiazole], the IC50 – broadly, the concentration at which inhibition is half-maximal – was found to be 2000 nM.

Consider `COc1ccc(-c2nnc(N[C@H](C)[C@H]3CC[C@@H](c4ccnc5ccc(F)cc54)CC3)o2)cn1` [Example 33, N-((R)-1-((1s,4S)-4-(6-fluoroquinolin-4-yl)cyclohexyl)ethyl)-5-(6-methoxypyridin-3-yl)-1,3,4-oxadiazol-2-amine], for which the IC50 worked out at 64.1 nM.

Turning to `C[C@@H](c1ncc(-c2ccc(Cl)cc2)o1)[C@H]1CC[C@@H](c2ccnc3ccc(F)cc32)CC1` [Example 43, 5-(4-Chlorophenyl)-2-((R)-1-((1s,4S)-4-(6-fluoroquinolin-4-yl)cyclohexyl)ethyl)oxazole], the IC50 is 288 nM.

With `CCC(Nc1nnc(-c2ccc(OC)cc2)o1)[C@H]1CC[C@@H](c2ccnc3ccc(F)cc32)CC1` (mixture of isomers) [Example 48, N-(1-((1s,4s)-4-(6-Fluoroquinolin-4-yl)cyclohexyl)propyl)-5-(4-methoxyphenyl)-1,3,4-oxadiazol-2-amine], the IC50 was 3.6 nM.

With `Cc1ccc(-c2nnc([C@H](C)[C@H]3CC[C@@H](c4ccnc5ccc(F)cc54)CC3)[nH]2)cc1F` [Example 10, 6-fluoro-4-((1S,4s)-4-((R)-1-(5-(3-fluoro-4-methylphenyl)-4H-1,2,4-triazol-3-yl)ethyl)cyclohexyl)quinoline], the IC50 worked out at 747 nM.

On to `COc1ccc(-c2nnc([C@H](C)[C@H]3CC[C@@H](c4ccnc5ccc(F)cc54)CC3)[nH]2)cc1` [Example 9], for which the IC50 was 192 nM.

Regarding `COc1ccc(-c2nnc(N[C@H](C)[C@H]3CC[C@@H](c4ccnc5ccc(F)cc54)CC3)[nH]2)cc1` [Example 42, N—((R)-1-((1s,4S)-4-(6-Fluoroquinolin-4-yl)cyclohexyl)ethyl)-5-(4-methoxyphenyl)-4H-1,2,4-triazol-3-amine], the IC50 stood at 57.2 nM.

For `CCC(c1nnc(-c2ccc(OC(C)C)cc2)o1)C1CCC(c2ccnc3ccc(F)cc23)CC1` (centres unmarked) [Example 54, 2-(1-(4-(6-Fluoroquinolin-4-yl)cyclohexyl)propyl)-5-(4-isopropoxyphenyl)-1,3,4-oxadiazole], the IC50 came to 68.8 nM.

With `C[C@@H](Nc1nnc(-c2ccc(Cl)cc2)[nH]1)[C@H]1CC[C@@H](c2ccnc3ccc(F)cc32)CC1` [Example 40, 5-(4-Chlorophenyl)-N—((R)-1-((1s,4S)-4-(6-fluoroquinolin-4-yl)cyclohexyl)ethyl)-4H-1,2,4-triazol-3-amine], the IC50 came to 126 nM.

Turning to `Cc1csc(-c2nnc(N[C@H](C)[C@H]3CC[C@@H](c4ccnc5ccc(F)cc54)CC3)o2)n1` [Example 32, N-((R)-1-((1s,4S)-4-(6-fluoroquinolin-4-yl)cyclohexyl)ethyl)-5-(4-methylthiazol-2-yl)-1,3,4-oxadiazol-2-amine], the IC50 was determined as 3.5 nM.

In the case of `C[C@@H](Nc1nc(-c2ccc(Cl)cc2)cs1)[C@H]1CC[C@@H](c2ccnc3ccc(F)cc32)CC1` [Example 37, 4-(4-Chlorophenyl)-N—((R)-1-((1s,4S)-4-(6-fluoroquinolin-4-yl)cyclohexyl)ethyl)thiazol-2-amine], the IC50 came to 858 nM.

Consider `CCC(Nc1nnc(-c2ccc(OC)cc2)o1)[C@H]1CC[C@@H](c2ccnc3ccc(F)cc32)CC1` (single isomer, unassigned) [Example 49-1, N-(1-((1s,4s)-4-(6-Fluoroquinolin-4-yl)cyclohexyl)propyl)-5-(4-methoxyphenyl)-1,3,4-oxadiazol-2-amine], for which the IC50 is 0.9 nM.

For `C[C@@H](Nc1nnc(-c2ccc(Cl)cc2)o1)[C@H]1CC[C@@H](c2ccnc3ccc(F)cc32)CC1` [Example 23, 5-(4-Chlorophenyl)-N—((R)-1-((1s,4S)-4-(6-fluoroquinolin-4-yl)cyclohexyl)ethyl)-1,3,4-oxadiazol-2-amine], the IC50 was 45.3 nM.

For `CCOCC(Nc1nnc(-c2ccc(OC)cc2)o1)[C@H]1CC[C@@H](c2ccnc(F)c2C)CC1` (single isomer, unassigned) [Example 57-2, N-(2-Ethoxy-1-((1s,4s)-4-(2-fluoro-3-methylpyridin-4-yl)cyclohexyl)ethyl)-5-(4-methoxyphenyl)-1,3,4-oxadiazol-2-amine], the IC50 came out at 330 nM.

On to `C[C@@H](Nc1nnc(-c2ccc(F)cc2)o1)[C@H]1CC[C@@H](c2ccnc3ccc(F)cc32)CC1` [Example 31, 5-(4-fluorophenyl)-N-((R)-1-((1s,4S)-4-(6-fluoroquinolin-4-yl)cyclohexyl)ethyl)-1,3,4-oxadiazol-2-amine], for which the IC50 was determined as 42.7 nM.

Regarding `CCC(Nc1nnc(-c2ccc(OC)cc2)o1)[C@H]1CC[C@@H](c2ccnc(F)c2C)CC1` (single isomer, unassigned) [Example 63-2, N-(1-((1s,4s)-4-(2-Fluoro-3-methylpyridin-4-yl)cyclohexyl)propyl)-5-(4-methoxyphenyl)-1,3,4-oxadiazol-2-amine], the IC50 is 141 nM.

As for `C[C@@H](c1ncc(-c2ccc(F)cc2)[nH]1)[C@H]1CC[C@@H](c2ccnc3ccc(F)cc32)CC1` [Example 47, 6-Fluoro-4-((1S,4s)-4-((R)-1-(5-(4-fluorophenyl)-1H-imidazol-2-yl)ethyl)cyclohexyl)quinoline], the IC50 was 18.3 nM.

For the compound `C[C@@H](c1nnc(-c2ccc(C#N)cc2)s1)[C@H]1CC[C@@H](c2ccnc3ccc(F)cc32)CC1` [Example 6, 4-(5-((R)-1-((1s,4S)-4-(6-Fluoroquinolin-4-yl)cyclohexyl)ethyl)-1,3,4-thiadiazol-2-yl)benzonitrile], the IC50 was 37 nM.

Turning to `C[C@@H](c1ncc(-c2ccc(C#N)cc2)o1)[C@H]1CC[C@@H](c2ccnc3ccc(F)cc32)CC1` [Example 46, 4-(2-((R)-1-((1s,4S)-4-(6-Fluoroquinolin-4-yl)cyclohexyl)ethyl)oxazol-5-yl)benzonitrile], the IC50 was determined as 386 nM.

As to `CCC(c1nnc(-c2ccc(OC(C)C)cc2)[nH]1)C1CCC(c2ccnc3ccc(F)cc23)CC1` (centres unmarked) [Example 51, 6-Fluoro-4-(4-(1-(5-(4-isopropoxyphenyl)-4H-1,2,4-triazol-3-yl)propyl)cyclohexyl)quinoline], the IC50 turned out to be 71.1 nM.

With `CCC(Nc1nnc(-c2ccc(OC)cc2)o1)C1CCC(c2ccnc3ccc(F)cc23)CC1` (centres unmarked) [Example 50, N-(1-((1r,4r)-4-(6-Fluoroquinolin-4-yl)cyclohexyl)propyl)-5-(4-methoxyphenyl)-1,3,4-oxadiazol-2-amine], the IC50 is 122 nM.

In the case of `Cc1ccc(-c2nnc([C@H](C)[C@H]3CC[C@@H](c4ccnc5ccc(F)cc54)CC3)[nH]2)cc1` [Example 15, 6-fluoro-4-((1S,4s)-4-((R)-1-(5-p-tolyl-4H-1,2,4-triazol-3-yl)ethyl)cyclohexyl)quinoline], the IC50 amounted to 124 nM.

For `CCC(c1nnc(Nc2ccc(OC)cc2)[nH]1)C1CCC(c2ccnc3ccc(F)cc23)CC1` (single isomer, unassigned) [Example 55, 5-(1-(4-(6-Fluoroquinolin-4-yl)cyclohexyl)propyl)-N-(4-methoxyphenyl)-4H-1,2,4-triazol-3-amine], the IC50 worked out at 2000 nM.

In the case of `COc1ccc(Nc2nnc([C@H](C)[C@H]3CC[C@@H](c4ccnc5ccc(F)cc54)CC3)[nH]2)cc1` [Example 20, 5-((R)-1-((1s,4s)-4-(6-Fluoroquinolin-4-yl)cyclohexyl)ethyl)-N-(4-methoxyphenyl)-4H-1,2,4-triazol-3-amine], the IC50 amounted to 135 nM.

For `C[C@@H](Nc1nnc(-c2ccc(-c3nccs3)cc2)o1)[C@H]1CC[C@@H](c2ccnc3ccc(F)cc32)CC1` [Example 35, N-((R)-1-((1s,4S)-4-(6-fluoroquinolin-4-yl)cyclohexyl)ethyl)-5-(4-(thiazol-2-yl)phenyl)-1,3,4-oxadiazol-2-amine], the IC50 came to 1000 nM.

Take `CCC(Nc1nnc(-c2ccc(OC)cc2)o1)[C@H]1CC[C@@H](c2ccnc3ccc(F)cc32)CC1` (single isomer, unassigned) [Example 49-2, N-(1-((1s,4s)-4-(6-Fluoroquinolin-4-yl)cyclohexyl)propyl)-5-(4-methoxyphenyl)-1,3,4-oxadiazol-2-amine]: the 50% inhibitory concentration (IC50) stood at 177 nM.

Take `C[C@@H](c1nnc(-c2ccc(F)c(Cl)c2)o1)[C@H]1CC[C@@H](c2ccnc3ccc(F)cc32)CC1` [Example 17, 2-(3-chloro-4-fluorophenyl)-((R)-1-((1s,4S)-4-(6-fluoroquinolin-4-yl)cyclohexyl)ethyl)-1,3,4-oxadiazole]: the half-maximal inhibitory concentration (IC50) worked out at 239 nM.

For the compound `CCC(Nc1nnc(-c2ccc(F)cc2)o1)C1CCC(c2ccnc3ccc(C(F)(F)F)cc23)CC1` (single isomer, unassigned) [Example 61, 5-(4-fluorophenyl)-N-(1-((1s,4s)-4-(6-(trifluoromethyl)quinolin-4-yl)cyclohexyl)propyl)-1,3,4-oxadiazol-2-amine], the IC50 amounted to 811 nM.

Regarding `CCC(c1nnc(Nc2ccc(OC)cc2)[nH]1)C1CCC(c2ccnc3ccc(F)cc23)CC1` (single isomer, unassigned) [Example 56, 5-(1-(4-(6-Fluoroquinolin-4-yl)cyclohexyl)propyl)-N-(4-methoxyphenyl)-4H-1,2,4-triazol-3-amine], the IC50 was 18.4 nM.

The values are drawn from patent publication US11351164B2, “Inhibitors of indoleamine 2,3-dioxygenase and methods of their use” (BRISTOL-MYERS SQUIBB COMPANY, priority 2016, dated 2022).
